Reference: the NIST ThermoML archive (doi:10.1016/j.jct.2004.12.016)
Where “and” joins values, the source holds several entries; their conditions need not be identical. Equal values may be shown once.

Details: for vapor or sublimation pressure: Closed cell (Static) method; for mass density: Fluid (supercritical or subcritical phases), isochoric method

N [ammonia]
Details | Critical density [kg/m3] | Critical temperature [K] | mass density | vapor or sublimation pressure
310 K, Liquid | – | – | – | 1423.6 kPa [middle of 6 runs]
350 K, Liquid | – | – | – | 3867 kPa [middle of 5 runs]
400 K, Liquid | – | – | – | 10303 kPa [middle of 4 runs]
404.5 K, Liquid | – | – | – | 11148 kPa and 11151 kPa and 11150 kPa
405.5 K, Liquid | – | – | – | 11343 kPa
405.53 K, Liquid | – | – | – | 11351 kPa
405.54 K, Liquid | – | – | – | 11352 kPa and 11354 kPa and 11353 kPa
405.55 K, 11351 kPa | – | – | 235.01 kg/m3 | –
405.55 K, 11355 kPa | – | – | 249.99 kg/m3 | –
405.55 K, 11359 kPa | – | – | 255.19 kg/m3 | –
405.55 K, Liquid | – | – | – | 11356 kPa [middle of 5 runs]
405.56 K, 11355 kPa | – | – | 242.91 kg/m3 and 244.06 kg/m3 | –
405.56 K, 11356 kPa | – | – | 241.93 kg/m3 and 242.97 kg/m3 | –
405.56 K, 11357 kPa | – | – | 244.01 kg/m3 | –
405.56 K, 11358 kPa | – | – | 244.95 kg/m3 and 243.49 kg/m3 | –
405.56 K, 11359 kPa | – | – | 244 kg/m3 | –
405.57 K, 11358 kPa | – | – | 242.95 kg/m3 | –
405.57 K, 11360 kPa | – | – | 241.94 kg/m3 and 244.1 kg/m3 and 245.04 kg/m3 | –
405.57 K, 11361 kPa | – | – | 243.96 kg/m3 | –
405.57 K, 11370 kPa | – | – | 242.83 kg/m3 | –
405.58 K, 11360 kPa | – | – | 243.01 kg/m3 | –
405.58 K, 11362 kPa | – | – | 242.02 kg/m3 and 244.08 kg/m3 and 244.99 kg/m3 | –
405.6 K, 11355 kPa | – | – | 224.92 kg/m3 | –
405.6 K, 11356 kPa | – | – | 229.9 kg/m3 | –
405.6 K, 11362 kPa | – | – | 235.14 kg/m3 | –
405.6 K, 11363 kPa | – | – | 239.9 kg/m3 | –
405.6 K, 11367 kPa | – | – | 245.12 kg/m3 | –
Liquid, Visual observation in an unstirred cell | – | 405.56 | – | –
Liquid, metal-bellows volumometer | 244 | – | – | –
